The nature of series [1]: Chemical stability at acidic, neutral and basic pH. Conditions: for prodrug hydrolysis: 24 hours. Format: physicochemical. The procedure:
The stability of MCAB, M2CAB and M3CAB in acidic (pH 1), basic (pH 11) and neutral (pH 7) conditions at room temperature and elevated temperature (37° C.) was determined. The stock solution of each prodrug was prepared in DMSO at a concentration of 1 mg/mL. For acidic, basic and neutral assays, 100 μL of stock solution of each prodrug was added to 1900 μL of 0.1 M HCl, 0.1 M NaOH or optima-grade water (pH adjusted to 7), respectively. Samples were then incubated at room temperature and […] under shaking conditions (Innova® 42 shaker incubator, 150 rpm). Samples were withdrawn at 0, 2, 4, 8 and 24 hours and stored at −80° C. Later, samples were analyzed for drug content by UPLC-UV/Vis.

Series [2] can be described thus: Plasma cleavage drug hydrolysis kinetics. Format: in vitro ADME, mouse, rat, rabbit, monkey, dog, and human. Conditions: for prodrug cleavage in plasma: plasma of all species tested. How it is done: The hydrolysis kinetics of MCAB, M2CAB and M3CAB and relative release of active drug were determined in plasma of different species (mouse, rat, rabbit, monkey, dog, and human). MCAB, M2CAB or M3CAB (1 μM) were incubated in 100 μL plasma at 37° C. At different time points, 1 mL acidified methanol (0.1% formic acid and 25 mM ammonium formate to avoid further prodrug hydrolysis) was added to each sample and vortexed for 3 minutes to stop the reaction. For 0-minute time-point, a 100 μL ice cold plasma was spiked with prodrug stock solution, and 1 ml of ice cold acidic methanol was added immediately. Following the addition of methanol, samples were centrifuged at 15,000 g for 10 minutes, and collected supernatant was analyzed for drug content by UPLC-MS/MS (Waters Xevo TQ-XS).

Series [3] in a line: 1-octanol solubility. Conditions: organic solvent or mixture.
Series [4] in a line: Aqueous solubility. It is filed as physicochemical. Conditions: optima water, room temperature; for solubility at 24 h: thermodynamic from solid; for aqueous solubility: 24 hours. How it is done:
The aqueous solubility of CAB, MCAB, M2CAB and M3CAB in optima water was determined by adding the excess drug or prodrug powder in 1 mL water to make the saturated aqueous solution. The mixture was stirred for 24 hours at room temperature. Further, the solution was centrifuged at 14000 rpm for 10 minutes to pellet the undissolved powder. The supernatant was collected, lyophilized and dissolved in methanol for the drug content analysis by UPLC UV/Vis.

Series [5] deals with HIV-1ADA. The experiment in a line: Half-maximum effective concentration (EC50) assay, HIV-1 RT activity in MDM. It is filed as cell-based. Conditions: HIV-1ADA MOI 0.1, 10 days. How it is done:
MDMs were plated in clear flat-bottom 24-well plates at a density of 0.8×10^6 cells/well. […] Following treatment, cells were washed with PBS and cultured in fresh culture medium with half-media replacement every other day. At 1, 5, 10, 15, 20, 25 and 30 days after the treatment, the cells were infected with HIV-1ADA (a macrophage tropic viral strain) at a multiplicity of infection (MOI) of 0.1 infectious particles per cell for 16 hours. Following infection period, MDM were washed with PBS and replenished with fresh media. Cells were cultured for next ten days with half-media replacement every other day, and the full media replacement on the 8th day. The culture media was collected on the 10th day after infection for the measurement of HIV-1 RT activity (Kalter, et al., J. Immunol. (1991) 146:3396-3404; Nowacek, et al., J. Neuroimmune Pharm. (2010) 5:592-601). The extent of infection was expressed as a percent of RT activity by infected MDM that were not treated. Cells were fixed in 2% PFA, and expression of HIV-1 p24 antigen was determined by immunocytochemistry (Nowacek, et al., J. Neuroimmune Pharm. (2010) 5:592-601).
MDM were plated in clear flat-bottom 96-well plates (0.08×10^6 cells/well). […] After 4 hours of viral challenge, cells were washed and given fresh media containing drug (0.1-1000 nM). Subsequently, cell supernatants were collected 10 days later and assayed for HIV-1 RT activity as described above.

A short description of series [6]: PK and biodistribution in NSG mice. It is filed as in vivo.
Procedure: Drug levels from plasma and tissues were assayed by UPLC-MS/MS. Drug levels in plasma were monitored weekly.
Following injection, blood samples were collected into heparinized tubes at day 1 post-administration and then weekly up to day 364 by cheek puncture (submandibular vein, MEDIpoint, Inc., Mineola, NY). Collected blood (25 μL) was immediately diluted into 1 mL ACN and stored at −80° C. until drug measurements. Remaining blood samples were centrifuged at 2,000 g for 8 minutes for plasma collection. Plasma was collected and stored at −80° C. for analysis of drug contents. At day 14, 28, 42 and 364 following administration, animals were humanly euthanized by isoflourane inhalation, followed by cervical dislocation. Spleen, lymph nodes, liver, lung, gut, kidney, brain, vaginal tissue, and rectal tissue were collected for quantitation of CAB and prodrug concentrations. CAB, MCAB, M2CAB and M3CAB were quantitated in mouse plasma, blood and tissues by UPLC-MS/MS using a Waters ACQUITY H-class UPLC (Waters, Milford, MA, USA) connected to a Xevo TQ-S micro mass spectrometer. All solvents for sample processing and UPLC-MS/MS analysis were LCMS-grade (Fisher). For plasma and blood samples, 25 μL of sample was added into 1 mL acetonitrile (ACN) spiked with 10 μL internal standard (IS). d3-Dolutegravir (d3-DTG), myristoylated dolutegravir (MDTG), and stearoylated darunavir (SDRV), at a final concentration of 200, 20 and 20 ng/mL, respectively, were used as ISs for CAB, MCAB and M2CAB/M3CAB analyses, respectively. Samples were vortexed and centrifuged at 17,000×g for 10 minutes at 4° C. […] For tissue drug quantitation, 3-200 mg of sample was homogenized in 4-29 volumes of 0.1% v/v formic acid and 2.5 mM ammonium formate containing 90% methanol. […] For CAB quantitation, chromatographic separation of 10 μL CAB sample was performed on a Waters ACQUITY UPLC BEH Shield RP18 column (1.7 μm, 2.1 mm×100 mm) using a 10-minute gradient of mobile phase A (7.5 mM ammonium formate in water, adjusted to pH 3 using formic acid) and mobile phase B (100% ACN) at a flow rate of 0.25 mL/minute. […]
The subject of series [7] is HIV-1. Conditions: protein-adjusted; cited from earlier work.
The conditions of series [8]: after oral administration; cited from earlier work.
[9] abbreviates: Human immunodeficiency virus 1, 240 h.

In brackets after ≈: the same amount, converted by molar mass. Several values for one entry are separate records, joined by “and”; a condition that tells them apart may be missing. Equal values may be shown once.

What is called solubility is how much of the substance goes into solution per volume. By EC50 is commonly meant the concentration that produces a half-maximal response. In general, aqueous solubility refers to how much of the substance goes into solution per volume. A high value points to a readily soluble substance.

On to `CCCCCCCCCCCCCCCCCC(=O)Oc1c2n(cc(C(=O)NCc3ccc(F)cc3F)c1=O)C[C@H]1OC[C@H](C)N1C2=O` [M2CAB], for which the prodrug hydrolysis in series [1] (37° C., acidic (pH 1)) is more than 95%; in series [1] (37° C., neutral (pH 7)) it was 28%; in series [1] (room temperature, acidic (pH 1)), 19%; in series [1] (room temperature, basic (pH 11)), “completely hydrolyzed”; in series [1] (room temperature, neutral (pH 7)), 24%. In series [1] (37° C., basic (pH 11)), the “time to complete hydrolysis” value is not above 2 h. In addition, the “prodrug cleavage in plasma” value is 75% in series [2] (by 2 hours, average) and 80% in series [2] (by 6 hours, average). Also, in series [3], the solubility is 2640 ± 20 µg/mL (≈ 3930 µM). Besides, the solubility at 24 h in series [4] is 1.91 ± 0.23 µg/mL (≈ 2.84 µM). This compound displayed an EC50 in series [5] (setting [9]) of 44.7 nM. Further, the concentration at 1 day in series [6] (female, NSG, mouse, whole blood, intramuscular, 45 mg/kg CAB-equivalents, day 1 post-injection, read-out: prodrug concentration in blood) was 31.3 ng/mL.
Consider `C[C@H]1CO[C@@H]2Cn3cc(C(=O)NCc4ccc(F)cc4F)c(=O)c(O)c3C(=O)N12` [CAB, cabotegravir], for which, in series [3], the solubility was 90 ± 2 µg/mL (≈ 222 µM). In series [4], this compound returned a solubility at 24 h of 12.1 ± 0.41 µg/mL (≈ 29.9 µM). Further, in series [7], the “4×PA-IC90” value is 0.66 µg/mL and 0.664 µg/mL; the PA-IC90 is 0.166 µg/mL. The compound further yielded an EC50 in series [5] (setting [9]) of 28.4 nM. In addition, the systemic half-life entry in series [8] is given as “approximately 40 hours”.
`CCCCCCCCCCCCCCCCCCCCCC(=O)Oc1c2n(cc(C(=O)NCc3ccc(F)cc3F)c1=O)CC1OCC(C)N1C2=O` (centres unmarked) [M3CAB]: the “prodrug remaining in plasma” value in series [2] (after 24 hours of incubation) is “around 50%”. Also, the aqueous solubility in series [4] amounted to 1.51 ± 0.7 µg/mL (≈ 2.07 µM). The compound also had an EC50 in series [5] of 51.1 nM.
Consider `CCCCCCCCCCCCCC(=O)Oc1c2n(cc(C(=O)NCc3ccc(F)cc3F)c1=O)CC1OCC(C)N1C2=O` (centres unmarked) [MCAB], for which the “prodrug cleavage in plasma” value in series [2] (within 30 minutes, 37° C., 1 μM) is reported as “more than 85%”. For the same compound, the aqueous solubility in series [4] stood at 2.83 ± 1.37 µg/mL (≈ 4.6 µM). Besides, in series [5], the EC50 is 34.2 nM. Moreover, the “prodrug concentration in blood” value in series [6] (day 1 post-injection) is 22 ng/mL. In series [6] (day 364), the “prodrug levels in tissues” value is on record as “undetectable”.
